For data set [1], the target named is T1, hFAP (Homo sapiens, UniProt Q12884).
T1 sequence (Q12884 38-760): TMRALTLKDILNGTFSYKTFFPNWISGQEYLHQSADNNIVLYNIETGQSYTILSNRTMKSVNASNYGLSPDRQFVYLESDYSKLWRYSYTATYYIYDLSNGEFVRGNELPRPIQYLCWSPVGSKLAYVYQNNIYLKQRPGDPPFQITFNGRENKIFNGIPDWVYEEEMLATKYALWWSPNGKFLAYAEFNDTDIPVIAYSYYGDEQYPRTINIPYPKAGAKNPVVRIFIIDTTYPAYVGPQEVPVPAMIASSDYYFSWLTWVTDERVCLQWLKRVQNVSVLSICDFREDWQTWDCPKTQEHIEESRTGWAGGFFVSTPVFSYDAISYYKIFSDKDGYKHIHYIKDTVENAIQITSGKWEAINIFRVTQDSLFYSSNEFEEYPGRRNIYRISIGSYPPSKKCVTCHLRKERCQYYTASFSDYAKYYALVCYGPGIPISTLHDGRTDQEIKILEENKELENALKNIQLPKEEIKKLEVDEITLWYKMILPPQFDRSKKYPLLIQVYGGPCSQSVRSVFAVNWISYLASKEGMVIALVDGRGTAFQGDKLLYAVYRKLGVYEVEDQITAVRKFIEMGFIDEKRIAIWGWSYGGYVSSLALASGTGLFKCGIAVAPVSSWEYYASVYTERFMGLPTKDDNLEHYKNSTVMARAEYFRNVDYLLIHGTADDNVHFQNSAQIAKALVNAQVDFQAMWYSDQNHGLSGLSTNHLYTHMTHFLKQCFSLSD
The data set is described as follows: biochemical.
Protocol: 384 low volume black plates (Greiner #784076) were used. 4 μL, 0.48 nM enzyme solution (100 mM Tris HCl, 100 mM NaCl, 0.05% Chaps, pH 7.4) was added to 40 nL compounds (in DMSO) at 10 CR, 3 fold dilution series from 50 μM FAC. Plates were incubated for 15 min at rt in dark. 4 μL, 40 μM substrate solution (100 mM Tris HCl, 100 mM NaCl, 0.05% Chaps, pH 7.4) was added to each well. Plates were centrifuged at 1000 rpm and incubated for 30 min at rt in dark. The plates were read on a PHERAstar® reader with excitation 340 nm and emission 460 nm. Data were analyzed in Genedata Screener®. IC50 values were determined by plotting % inhibition versus log compound concentration and using a one site dose response model.

For data set [2], the target named is T2, hFAP (M39-A757) (Homo sapiens, UniProt Q12884).
T2 sequence (Q12884 39-757): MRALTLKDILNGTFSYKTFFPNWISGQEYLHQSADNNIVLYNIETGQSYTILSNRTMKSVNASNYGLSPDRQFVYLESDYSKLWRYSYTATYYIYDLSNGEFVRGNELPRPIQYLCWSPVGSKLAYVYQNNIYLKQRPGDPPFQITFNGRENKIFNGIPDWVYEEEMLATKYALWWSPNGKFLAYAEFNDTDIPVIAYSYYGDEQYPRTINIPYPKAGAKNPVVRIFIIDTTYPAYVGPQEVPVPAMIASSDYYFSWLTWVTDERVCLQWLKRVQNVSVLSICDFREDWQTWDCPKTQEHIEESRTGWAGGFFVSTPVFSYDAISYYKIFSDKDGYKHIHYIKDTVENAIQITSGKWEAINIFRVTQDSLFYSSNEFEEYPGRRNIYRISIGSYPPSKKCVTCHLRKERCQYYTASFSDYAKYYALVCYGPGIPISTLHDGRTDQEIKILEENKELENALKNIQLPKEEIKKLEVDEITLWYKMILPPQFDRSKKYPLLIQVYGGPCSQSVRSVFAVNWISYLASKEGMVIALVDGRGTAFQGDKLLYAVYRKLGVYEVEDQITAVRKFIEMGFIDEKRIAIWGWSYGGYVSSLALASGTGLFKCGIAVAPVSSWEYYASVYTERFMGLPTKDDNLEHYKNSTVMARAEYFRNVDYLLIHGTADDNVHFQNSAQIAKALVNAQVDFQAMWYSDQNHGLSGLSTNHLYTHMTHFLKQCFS
The data set is described as follows: biochemical.
Protocol: Compounds were tested in a direct binding assay using 8K surface plasmon resonance biosensor (GE Healthcare) at 20° C. Immobilization of hFAP (M39-A757) on a CMD200M sensor chip (Xantec) was performed using standard amine coupling procedure in immobilization buffer (10 mM HEPES, 150 mM NaCl, 0.05% Tween20, pH 7.4). The surface was washed with 10 mM aq NaOH, 1M NaCl before being activated with EDC/NHS (GE Healthcare), followed by immobilization of hFAP (in 10 mM Acetate pH 5.0). Finally, the surface was deactivated by ethanolamine. Immobilization levels of hFAP were around 4000-6000 RU. The reference spot was treated as described, omitting the injection of hFAP. Compound concentration series were injected over the immobilized protein in increasing concentrations (2-500 nM) using single cycle kinetics in running buffer (20 mM TRIS, 150 mM NaCl, 0.05% Tween20, 1% DMSO, pH 7.4). Interaction models were fitted globally to the experimental traces, enabling determination of kon, koff and Kd.

For data set [3], the target named is T3, Prolyl endopeptidase, Prolyl Oligopeptidase (hPREP) (Homo sapiens, UniProt P48147).
T3 sequence (P48147 1-710): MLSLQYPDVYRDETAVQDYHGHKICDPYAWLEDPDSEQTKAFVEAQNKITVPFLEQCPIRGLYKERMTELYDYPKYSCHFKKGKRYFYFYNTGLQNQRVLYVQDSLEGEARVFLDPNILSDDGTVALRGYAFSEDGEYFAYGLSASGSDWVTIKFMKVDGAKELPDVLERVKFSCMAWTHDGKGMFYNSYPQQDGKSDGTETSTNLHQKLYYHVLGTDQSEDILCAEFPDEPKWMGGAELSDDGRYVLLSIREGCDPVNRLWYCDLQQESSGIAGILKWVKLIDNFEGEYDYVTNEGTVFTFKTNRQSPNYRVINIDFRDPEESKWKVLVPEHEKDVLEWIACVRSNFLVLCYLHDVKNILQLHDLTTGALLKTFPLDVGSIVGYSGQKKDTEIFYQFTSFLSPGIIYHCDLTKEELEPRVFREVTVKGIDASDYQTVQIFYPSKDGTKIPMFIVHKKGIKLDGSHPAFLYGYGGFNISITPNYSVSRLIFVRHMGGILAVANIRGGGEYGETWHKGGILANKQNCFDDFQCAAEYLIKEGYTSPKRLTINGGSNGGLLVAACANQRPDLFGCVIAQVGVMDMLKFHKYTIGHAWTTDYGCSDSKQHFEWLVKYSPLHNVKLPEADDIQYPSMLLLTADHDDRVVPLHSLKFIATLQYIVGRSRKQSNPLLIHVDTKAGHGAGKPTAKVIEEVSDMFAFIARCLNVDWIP
The data set is described as follows: biochemical.

Data set [4] deals with Rat Hepatocytes (rHep). The data set is described as follows: Metabolic stability in rat hepatocytes (rHep). The settings on record: n = 1 or geometric mean (n = 2-3). The class given is in vitro ADME. The procedure:
Metabolic stability in rat hepatocytes was measured as described in J Comput Aided Mol Des 2015, 29, 795.

Data set [5] is described as follows: Kinetic solubility. The note with it: kinetic from dmso stock, n = 1 or average (n = 2-4). The class given is physicochemical. The procedure:
Kinetic solubility was measured as described in Comput Aided Mol Des 2015, 29, 795.

A short description of data set [6]: Metabolic stability in human liver microsomes (HLM). Type of data set: in vitro ADME. The note with it: n = 1 or average (n = 2-3). The procedure: Metabolic stability in HLM was measured as described in J Comput Aided Mol Des 2015, 29, 795.
Background: Liver microsomes are a subcellular fraction often used to study metabolism.

The structures appear in SMILES notation. pIC50, pKd: −log10 of the molar value. Values after ≈ are worked out from the molar mass of the structure shown. A value given as a limit tells only on which side of the number the result lay.

For orientation: pIC50 means the IC50 on a negative log10 scale, so that one unit is a factor of ten. Low readings indicate a high IC50, high ones a low IC50. Usually pKd stands for the negative decadic logarithm of the Kd, by convention in mol/L. A lower pKd goes with a large Kd. In general, solubility refers to how much of the substance goes into solution per volume. A higher solubility goes with a readily soluble substance. What is called microsomal CLint is the capacity of the preparation to metabolise the compound, expressed as a volume cleared per time.
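For pKd in this document: surface plasmon resonance direct binding to hFAP amine-coupled on a sensor chip, rising compound concentrations by single cycle kinetics, Kd from global fit of interaction models.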

Take `N#C[C@@H]1CSCN1C(=O)CNC(=O)c1ccnc2ccc(C3COCCO3)cc12` (mixture of isomers) [Example 33, N-(2-((R)-4-Cyanothiazolidin-3-yl)-2-oxoethyl)-6-((RS)-1,4-dioxan-2-yl)quinoline-4-carboxamide]: the pIC50 was 9.27 in data set [1] and 6.17 in data set [3]. In data set [2], this compound showed a pKd of 9.52.

As to `N#C[C@@H]1CSCN1C(=O)CNC(=O)c1ccnc2ccc(C3CCCO3)cc12` (mixture of isomers) [Example 34, N-(2-((R)-4-Cyanothiazolidin-3-yl)-2-oxoethyl)-6-((RS)-tetrahydrofuran-2-yl)quinoline-4-carboxamide], the pIC50 in data set [1] was 9.21; in data set [3] it was 6.34. Besides, in data set [2], the pKd is 9.51.

For `CC1(C)CC(c2ccc3nccc(C(=O)NCC(=O)N4CSC[C@H]4C#N)c3c2)CO1` (mixture of isomers) [Example 61, N-(2-((R)-4-Cyanothiazolidin-3-yl)-2-oxoethyl)-6-(5,5-dimethyltetrahydrofuran-3-yl)quinoline-4-carboxamide], the “rHeps CLint” value in data set [4] amounted to 23 μL/min/1E6. In addition, the solubility in data set [5] is above 1000 µM. The pIC50 in data set [3] is 6.19. The compound also registered a microsomal CLint in data set [6] of 77 µL/min/mg.

As for `CC1(C)CC(c2ccc3nccc(C(=O)NCC(=O)N4CSC[C@H]4C#N)c3c2)CCO1` (mixture of isomers) [Example 68, N-(2-((R)-4-Cyanothiazolidin-3-yl)-2-oxoethyl)-6-((RS)-2,2-dimethyltetrahydro-2H-pyran-4-yl)quinoline-4-carboxamide], the pIC50 in data set [1] was 9.52; in data set [3] it was 6.48. The compound further showed a pKd in data set [2] of 10.12.

Turning to `N#C[C@@H]1CSCN1C(=O)CNC(=O)c1ccnc2ccc([C@]34CCOC[C@H]3C4)cc12` (racemic) [Example 69, 6-((1RS,6SR)-3-Oxabicyclo[4.1.0]heptan-6-yl)-N-(2-((R)-4-cyanothiazolidin-3-yl)-2-oxoethyl)quinoline-4-carboxamide], the pIC50 in data set [1] is 9.70; in data set [3] it was 6.46. The same compound gave a pKd in data set [2] of 10.59.

In the case of `N#C[C@@H]1CSCN1C(=O)CNC(=O)c1ccnc2ccc(Oc3ccccc3)cc12` [Example 1, (R)—N-(2-(4-Cyanothiazolidin-3-yl)-2-oxoethyl)-6-phenoxyquinoline-4-carboxamide], the negative logarithm of the IC50 (pIC50) in data set [1] was 9.36; in data set [3], 7.46. The pKd in data set [2] is 9.48.

On to `N#C[C@@H]1CSCN1C(=O)CNC(=O)c1ccnc2ccc(OC(CF)CF)cc12` [Example 7, (R)—N-(2-(4-Cyanothiazolidin-3-yl)-2-oxoethyl)-6-((1,3-difluoropropan-2-yl)oxy)quinoline-4-carboxamide], for which the “rHeps CLint” value in data set [4] is reported as 9.1 μL/min/1E6. In data set [5], this compound gave a solubility of 550 µM (≈ 231 µg/mL). Also, the pIC50 in data set [3] is 6.82. In addition, the microsomal CLint in data set [6] turned out to be 40 µL/min/mg.

With `N#C[C@@H]1CSCN1C(=O)CNC(=O)c1ccnc2ccc(OCC3CC(F)(F)C3)cc12` [Example 8, (R)—N-(2-(4-Cyanothiazolidin-3-yl)-2-oxoethyl)-6-((3,3-difluorocyclobutyl)methoxy)quinoline-4-carboxamide], the “rHeps CLint” value in data set [4] came to 11 μL/min/1E6. This compound displayed a solubility in data set [5] of 8.3 µM (≈ 3.71 µg/mL). In addition, the pIC50 in data set [3] was 5.92. Moreover, in data set [6], the microsomal CLint came out at 45 µL/min/mg.

As to `N#C[C@@H]1CSCN1C(=O)CNC(=O)c1ccnc2ccc(C(F)(F)F)cc12` [Example 17, (R)—N-(2-(4-Cyanothiazolidin-3-yl)-2-oxoethyl)-6-(trifluoromethyl)-quinoline-4-carboxamide], the pIC50 in data set [1] was 9.10; in data set [3] it was 7.46. Also, the pKd in data set [2] is 9.04.

For the compound `Cc1nn(C)nc1Cc1ccc2nccc(C(=O)NCC(=O)N3CSC[C@H]3C#N)c2c1` [Example 19, (R)—N-(2-(4-Cyanothiazolidin-3-yl)-2-oxoethyl)-6-((2,5-dimethyl-2H-1,2,3-triazol-4-yl)methyl)quinoline-4-carboxamide], the pIC50 in data set [1] is 9.66; in data set [3] it was 6.23. In addition, in data set [2], the pKd is 10.00.

Regarding `N#C[C@@H]1CSCN1C(=O)CNC(=O)c1ccnc2ccc(C3=CCOCC3)cc12` [Example 22, (R)—N-(2-(4-Cyanothiazolidin-3-yl)-2-oxoethyl)-6-(3,6-dihydro-2H-pyran-4-yl)quinoline-4-carboxamide], the pIC50 in data set [1] is 9.62; in data set [3], 6.25. Moreover, the pKd in data set [2] is 10.89.

`Cc1ccc2nccc(C(=O)NCC(=O)N3CSC[C@H]3C#N)c2c1` [Example 28, (R)—N-(2-(4-cyanothiazolidin-3-yl)-2-oxoethyl)-6-methylquinoline-4-carboxamide]: the pIC50 in data set [1] is 9.19; in data set [3], 7.47. In data set [2], this compound showed a pKd of 8.80.

Turning to `Cc1conc1Cc1ccc2nccc(C(=O)NCC(=O)N3CSC[C@H]3C#N)c2c1` [Example 38, (R)—N-(2-(4-Cyanothiazolidin-3-yl)-2-oxoethyl)-6-((4-methylisoxazol-3-yl)methyl)quinoline-4-carboxamide], the values for the pIC50 in data set [1] and in data set [3] were 9.68 and 6.74, respectively. Besides, the pKd in data set [2] is 9.47.

As for `Cc1cc(C)c(Cc2ccc3nccc(C(=O)NCC(=O)N4CSC[C@H]4C#N)c3c2)cn1` [Example 39, (R)—N-(2-(4-Cyanothiazolidin-3-yl)-2-oxoethyl)-6-((4,6-dimethylpyridin-3-yl)methyl)quinoline-4-carboxamide], the values for the pIC50 in data set [1] and in data set [3] were 9.47 and 6.28, respectively. Besides, the pKd in data set [2] was 9.74.

On to `Cn1ncc(Cc2ccc3nccc(C(=O)NCC(=O)N4CSC[C@H]4C#N)c3c2)n1` [Example 41, (R)—N-(2-(4-Cyanothiazolidin-3-yl)-2-oxoethyl)-6-((2-methyl-2H-1,2,3-triazol-4-yl)methyl)quinoline-4-carboxamide], for which the pIC50 in data set [1] was 10.06; in data set [3], 6.43. The same compound showed a pKd in data set [2] of 9.44.

As for `COC1(c2ccc3nccc(C(=O)NCC(=O)N4CSC[C@H]4C#N)c3c2)CCOCC1` [Example 66, (R)—N-(2-(4-Cyanothiazolidin-3-yl)-2-oxoethyl)-6-(4-methoxy-tetrahydro-2H-pyran-4-yl)quinoline-4-carboxamide], the pIC50 in data set [1] was 9.82; in data set [3], 6.34. The compound also had a pKd in data set [2] of 9.82.

The values are drawn from patent US20260070899A1, “N-(2-(4-CYANOTHIAZOLIDIN-3-YL)-2-OXOETHYL)-QUINOLINE-4-CARBOXAMIDES” (AstraZeneca AB, priority 2022, published 2026).
